On the set-up of data set [1]: key to Phase preferences, Physiological conditions: L, Lamellar; HII, hexagonal; M, micellar. As to conditions: liquid crystalline unsaturated lipids, cited from earlier work; for Phase preferences, Other conditions: conditions given in the cell.
The nature of data set [2]: Rancimat accelerated oxidation test. Type of data set: physicochemical. The procedure:
To investigate this, accelerated oxidation tests of cannabis oil in the labile soybean oil with and without additional antioxidants were conducted. The Rancimat (Metrohm MG, Herisau, Switzerland) test was used for this purpose as follows. 2 g of oil were placed in a narrow glass flask, heated to 110° C. and air was bubbled through the oil at 20 ml/min. This caused accelerated oxidation. As the liquid oxidized, volatile secondary oxidation products were volatilized and bubbled into room temperature water. This caused them to dissolve in the water, which results in an increase in its electrical conductivity. The conductivity is measured continuously using a standard electrode.

Data set [3] can be described thus: THC degradation on heating of cannabis oil films (gas-liquid chromatography). The note with it: dry films with 14 mg cannabis oil, 1.5 hours at 100° C.
Method: Five 1 ml chromatography glass vials were used for this purpose. […] Stock solutions of 0.5% sunflower lecithin (Sunlec25), 0.01% TBHQ and 0.5% lecithin+0.01% TBHQ were prepared.
The chloroform was evaporated under a stream of air until completely dry. […] After the heating period, samples were removed from the oven, allowed to cool to room temperature and then 1 ml of fresh chloroform was added to each vial and capped. Samples were then analyzed by gas-liquid chromatography as described previously. […] A 15 m×0.25 mm internal diameter fused silica column with a 0.20 μm DB5 film thickness was used (Agilent Inc., USA). The oven temperature was maintained at 80° C. for 5 minutes and then programmed to increase from 80 to 300° C. at 12° C./min. […] Split ratio was set at 10:1. Helium, the earlier gas, flowed at an average velocity of 25 cm/s. A flame ionization detector was set at 350° C. with 450 mL/min air and 50 mL/min helium flowing. The separated peaks were analyzed using Open LAB software (Agilent Technologies). The amount of cannabinoid was determined by comparing retention times of the peaks to an internal standard. Tor this analysis, the main THC peak was analyzed.

Turning to `CC(C)CCC[C@@H](C)[C@H]1CC[C@H]2[C@@H]3CC=C4C[C@@H](O)CC[C@]4(C)[C@H]3CC[C@]12C` [Cholesterol, cholesterol, reference compound], the “Phase preferences, Other conditions” value in data set [1] is “Induces HII phase in mixed”.
For `CC(C)(C)c1cc(O)ccc1O` [TBHQ, tert-butylhydroquinone], the “increase of induction time” value in data set [2] (0.01% TBHQ added to soybean oil alone) turned out to be 7.1 h. The “induction time of oxidation” value in data set [2] (0.01% TBHQ added to soybean oil containing 4.8 mg/g cannabis oil) amounted to 15.7 h; in data set [2] (0.01% TBHQ added to soybean oil containing 0.5% sunflower lecithin and 4.8 mg/g cannabis oil) it was 28.8 h. Further, in data set [2] (soybean oil, 110° C.), the “increase of induction time of oxidation for every 100 ppm TBHQ added” value fell in the range of 7.1 to 7.2 h.
On to `CCCCCc1cc(O)c2c(c1)OC(C)(C)[C@@H]1CCC(C)=C[C@@H]21` [THC, tetrahydrocannabinol], for which the “degradation of THC on heating” value in data set [3] is “significant degradation”.
With Cardiolipin, in data set [1], the “Phase preferences, Physiological conditions” value is given as “L” and the “Phase preferences, Other conditions” value is “HII, divalent cations,”.
For the compound Cerebroside, the “Phase preferences, Physiological conditions” value in data set [1] is on record as “L”.
Take Cerebroside sulfate: in data set [1], the “Phase preferences, Physiological conditions” value is given as “L”.
On to Digalactosyldiglyceride, for which, in data set [1], the “Phase preferences, Physiological conditions” value was “L”.
Take Diglucosyldiglyceride: the “Phase preferences, Physiological conditions” value in data set [1] is given as “L”.
Regarding Ganglioside, in data set [1], the “Phase preferences, Physiological conditions” value is “M”.
With Lysophosphatidylcholine, in data set [1], the “Phase preferences, Physiological conditions” value is “M”.
Take Monogalactosyldiglyceride: in data set [1], the “Phase preferences, Physiological conditions” value is on record as “HII”.
With Monoglucosyldiglyceride, the “Phase preferences, Physiological conditions” value in data set [1] is on record as “HII”.
Consider Phosphatidic acid, for which, in data set [1], the “Phase preferences, Physiological conditions” value is recorded as “L” and the “Phase preferences, Other conditions” value is listed as “HII, divalent cations,”.
In the case of Phosphatidylcholine, in data set [1], the “Phase preferences, Physiological conditions” value was “L”; the “Phase preferences, Other conditions” value was “HII low hydration and high”.
As for Phosphatidylethanolamine, in data set [1], the “Phase preferences, Physiological conditions” value was “HII” and the “Phase preferences, Other conditions” value was “L, pH ≥ 8.5 low temp”.
As to Phosphatidylglycerol, in data set [1], the “Phase preferences, Physiological conditions” value was “L” and the “Phase preferences, Other conditions” value was “HII, high temp, high salt conc”.
Phosphatidylinositol: the “Phase preferences, Physiological conditions” value in data set [1] is “L”.
Consider Phosphatidylserine, for which, in data set [1], the “Phase preferences, Physiological conditions” value is recorded as “L” and the “Phase preferences, Other conditions” value is “HII, pH ≤ 3.5”.
On to Sphingomyelin, for which, in data set [1], the “Phase preferences, Physiological conditions” value is recorded as “L”.
